# Measured values: the NIST ThermoML archive (doi:10.1016/j.jct.2015.07.035)
# ± gives the expanded uncertainty stated by the source.
# Key:
# [1] = refractive index (Na D-line) (dimensionless); details: 101.33 kPa, Liquid, Standard Abbe refractometry
# [2] = 101.33 kPa, Liquid, Vibrating tube method
refractive index ([1]; 298.2 K),mass density ([2]; 298.2 K) [kg/m3],refractive index ([1]; 303.2 K),mass density ([2]; 303.2 K) [kg/m3],Compound
1.43554 ± 0.00042,826.41 ± 1,–,–,CCCCCCCCCCO [decan-1-ol]
1.40124 ± 0.00042,921.34 ± 1.1,–,–,CC(C)CC(=O)O [3-methylbutanoic acid]
–,–,1.46238 ± 0.00042,941.42 ± 1.1,OC1CCCCC1 [cyclohexanol]
1.52467 ± 0.00042,1006.48 ± 1.1,–,–,CC(O)c1ccccc1 (configuration not stated) [1-phenylethanol]
1.56019 ± 0.00042,1039.32 ± 1.1,–,–,c1ccc(COCc2ccccc2)cc1 [dibenzyl ether]

Compound,refractive index ([1]; 298.2 K),mass density ([2]; 298.2 K) [kg/m3],refractive index ([1]; 303.2 K),mass density ([2]; 303.2 K) [kg/m3]
Clc1ccccc1 [chlorobenzene],1.52165 ± 0.00042,1101.08 ± 1.1,–,–
